The values below come from patent US8501770B2 (ArQule, Inc., priority 2009, dated 2013).

For assay [1], the target named is T1, Full-length inactive AKT1 (Homo sapiens, UniProt P31749). The experiment in a line: Inactive Akt HTRF Assay (Akt1).
Description: AKT1 activity was assayed using CisBio KinEASE™ HTRF Assay technology. This technology utilizes a proprietary biotinylated peptide substrate (STKS3), streptavidin labeled XL665 antibody, and STK antibody-Eu^3+-cryptate. AKT1 activation was achieved by the addition of the activating kinases PDK1 and MAPKAPK2, lipid vesicles, and ATP. The extent of STKS3 biotinylated peptide phosphorylation was determined using a phospho-STK antibody-Eu^3+-cryptate and streptavidin labeled XL665 antibody. XL665 was stimulated by Eu^3+-cryptate resulting in a TR-FRET signal proportional to the SKS3 phosphorylation level.
Assay [2] concerns the target T1, Full-length inactive AKT1. Nature of the assay: Inactive Akt Alpha Screen Assay. It counts as biochemical. In short, it runs like this:
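AlphaScreen read-out (excitation 640 nm, emission 570 nm) after 90 min incubation at room temperature in the dark. Signal comes from crosstide phosphorylation by AKT1, which was activated by added PDK1, MAPKAPK2, ATP and lipid vesicles, captured via phospho-AKT substrate antibody and streptavidin beads.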

In assay [3] the test system is A2780. The experiment in a line: MTS Assay, cell proliferation, A2780. It counts as cell-based. The following applies: Homo sapiens, read-out: Average of [CELL], IC50, MTS (72 hours; 10 Percent; FBS) A2780. The procedure: (§1) Cell proliferation analysis. Cell survival was determined by the MTS assay. Briefly, cells were plated in a 96-well plate at 2,000-10,000 cells per well, cultured for 24 hours in complete growth medium, and then treated with various drugs and drug combinations for 72 hours. MTS was added and incubated for 4 hour, followed by assessment of cell viability using the microplate reader at 570 nm. Data were normalized to untreated controls and analyzed with Microsoft Excel.

Assay [4] relates to AN3CA. Nature of the assay: MTS Assay, cell proliferation, AN3CA. It counts as cell-based. Particulars: Homo sapiens, AN3-CA, read-out: Average of [CELL], IC50, MTS (72 hours; 10 Percent; FBS) AN3CA. The procedure:
as §1

For assay [5], the system named is BT474. The experiment in a line: MTS Assay, cell proliferation, BT474. It counts as cell-based. The following applies: Homo sapiens, BT-474, read-out: Average of [CELL], IC50, MTS (72 hours; 10 Percent; FBS) BT474. As for the experimental part: as §1
Assay [6] concerns LnCap. The experiment in a line: MTS Assay, cell proliferation, LnCap. It counts as cell-based. The following applies: Homo sapiens, read-out: Average of [CELL], IC50, MTS (72 hours; 10 Percent; FBS) LnCap. The procedure: as §1
[7] abbreviates: values not marked with "*", read-out: Akt1 IC50, (AlphaScreen).
Where [8] appears, read: AlphaScreen assay (values not marked with *), read-out: Akt1 IC50, (AlphaScreen) (μM) (or if marked with “*” HTRF assay).

Counter-ions that a name gives are not always drawn.

T1 sequence (P31749 whole entry): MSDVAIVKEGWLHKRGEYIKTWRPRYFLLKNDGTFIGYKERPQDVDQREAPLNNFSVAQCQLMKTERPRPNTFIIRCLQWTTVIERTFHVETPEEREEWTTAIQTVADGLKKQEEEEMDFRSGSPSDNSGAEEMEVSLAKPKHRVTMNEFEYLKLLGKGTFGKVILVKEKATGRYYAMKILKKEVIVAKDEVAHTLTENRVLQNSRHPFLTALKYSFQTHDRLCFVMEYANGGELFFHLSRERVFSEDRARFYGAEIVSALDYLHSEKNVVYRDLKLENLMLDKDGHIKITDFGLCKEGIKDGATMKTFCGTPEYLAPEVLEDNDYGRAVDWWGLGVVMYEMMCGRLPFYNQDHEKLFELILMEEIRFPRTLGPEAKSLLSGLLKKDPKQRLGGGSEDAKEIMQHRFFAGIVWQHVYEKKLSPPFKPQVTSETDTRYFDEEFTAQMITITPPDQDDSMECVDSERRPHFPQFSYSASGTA

A word on the IC50: it is the concentration at which inhibition is half-maximal. In turn, `Nc1ncccc1-c1nc2cccnc2n1-c1ccc(-n2cncn2)cc1` [Example 31] registered an IC50 in assay [1] of 22100 nM.
On the same count and under the same terms, under `CC(C(=O)NCc1ccc(-n2c(-c3cccnc3N)nc3cccnc32)cc1)c1ccccc1` (stereo not drawn) [Example 51, N-{4-[2-(2-aminopyridin-3-yl)-3H-imidazo[4,5-b]pyridin-3-yl]benzyl}-2-phenylpropanamide] stands 82800 nM; under `Nc1ncccc1-c1nc2cccnc2n1-c1ccc(CC(=O)Nc2ccc(Cl)cn2)cc1` [Example 117, 2-{4-[2-(2-aminopyridin-3-yl)-3H-imidazo[4,5-b]pyridin-3-yl]phenyl}-N-(5-chloropyridin-2-yl)acetamide], 3960 nM; under `CCCCNC(=O)Cc1ccc(-n2c(-c3cccnc3N)nc3cccnc32)cc1` [Example 132, 2-{4-[2-(2-aminopyridin-3-yl)-3H-imidazo[4,5-b]pyridin-3-yl]phenyl}-N-butylacetamide], 6840 nM.
The same measure, in the same setting: in the case of `Nc1ncccc1-c1nc2cc(-c3ccccc3Br)cnc2n1-c1ccc(CNC(=O)c2ccccc2)cc1` [Example 136, N-{4-[2-(2-aminopyridin-3-yl)-6-(2-bromophenyl)-3H-imidazo[4,5-b]pyridin-3-yl]benzyl}benzamide] it was 7100 nM; in that of `Nc1ncccc1-c1nc2cc(-c3ccc(F)cc3)cnc2n1-c1ccc(CNC(=O)c2ccccc2)cc1` [Example 141, N-{4-[2-(2-aminopyridin-3-yl)-6-(4-fluorophenyl)-3H-imidazo[4,5-b]pyridin-3-yl]benzyl}benzamide], 7800 nM.
Still for that read-out and setting: under `Cc1ccc(-c2cnc3c(c2)nc(-c2cccnc2N)n3-c2ccc(CNC(=O)c3ccccc3)cc2)cc1` [Example 144, N-{4-[2-(2-aminopyridin-3-yl)-6-(4-methylphenyl)-3H-imidazo[4,5-b]pyridin-3-yl]benzyl}benzamide] stands 4500 nM.
In assay [1], `Nc1ncccc1-c1nc2cc(Br)cnc2n1-c1ccc(CNS(=O)(=O)c2ccc3ccccc3c2)cc1` [Example 157, N-{4-[2-(2-aminopyridin-3-yl)-6-bromo-3H-imidazo[4,5-b]pyridin-3-yl]benzyl}naphthalene-2-sulfonamide] showed an IC50 of 8100 nM.
As for `CC(=O)Nc1cccc(-c2ccc3nc(-c4cccnc4N)n(-c4ccc(CC(=O)Nc5ccccc5)cc4)c3n2)c1` [Example 261, 2-(4-(5-(3-acetamidophenyl)-2-(2-aminopyridin-3-yl)-3H-imidazo[4,5-b]pyridin-3-yl)phenyl)-N-phenylacetamide], the half-maximal inhibitory concentration (IC50) was 0.013 µM in assay [2] (setting [7]); 3300 nM in assay [3]; 2200 nM in assay [4]; 1300 nM in assay [5]; 1900 nM in assay [6].
On the same counts, the results for `CC(=O)Nc1cccc(-c2ccc3nc(-c4cccnc4N)n(-c4ccc(CNC(=O)c5ccccc5)cc4)c3n2)c1` [Example 287, N-(4-(5-(3-acetamidophenyl)-2-(2-aminopyridin-3-yl)-3H-imidazo[4,5-b]pyridin-3-yl)benzyl)benzamide] are 0.014 µM, 1600 nM, 1500 nM, 1200 nM and 2000 nM.
Turning to `CC(=O)Nc1cccc(NC(=O)Cc2ccc(-n3c(-c4cccnc4N)nc4ccc(-c5cccc(NC(C)=O)c5)nc43)cc2)c1` [Example 289, N-(3-acetamidophenyl)-2-(4-(5-(3-acetamidophenyl)-2-(2-aminopyridin-3-yl)-3H-imidazo[4,5-b]pyridin-3-yl)phenyl)acetamide], the IC50 in assay [2] (setting [7]) is 0.0063 µM; in assay [3], 10000 nM; in assay [4] it was 12000 nM; in assay [5] it was 3200 nM; in assay [6], 17000 nM.
On the same counts, the results for `CC(=O)Nc1cccc(-c2ccc3nc(-c4cccnc4N)n(-c4ccc(CC(=O)Nc5ccc6nc(C)ccc6c5)cc4)c3n2)c1` [Example 290, 2-(4-(5-(3-acetamidophenyl)-2-(2-amino-pyridin-3-yl)-3H-imidazo[4,5-b]pyridin-3-yl)phenyl)-N-(2-methylquinolin-6-yl)acetamide] are 0.012 µM, 3800 nM, 1100 nM, 620 nM and 2100 nM.
Consider `CC(=O)Nc1ccc(-c2ccc3nc(-c4cccnc4N)n(-c4ccc(CNC(=O)c5ccc(C)c(F)c5)cc4)c3n2)cc1` [Example 292, N-(4-(5-(4-acetamidophenyl)-2-(2-aminopyridin-3-yl)-3H-imidazo[4,5-b]pyridin-3-yl)benzyl)-3-fluoro-4-methylbenzamide], for which the IC50 in assay [2] (setting [7]) was 0.096 µM; in assay [3] it was 7400 nM; in assay [4], 2300 nM; in assay [5], 940 nM; in assay [6], 730 nM.
On the same counts, the results for `CC(=O)Nc1cccc(-c2ccc3nc(-c4cccnc4N)n(-c4ccc(CC(=O)Nc5cccc(F)c5)cc4)c3n2)c1` [Example 294, 2-(4-(5-(3-acetamidophenyl)-2-(2-aminopyridin-3-yl)-3H-imidazo[4,5-b]pyridin-3-yl)phenyl)-N-(3-fluorophenyl)acetamide] are 0.016 µM, 3300 nM, 1700 nM, 1100 nM and 950 nM.
Turning to `Cc1cnc2c(c1)nc(-c1cccnc1N)n2-c1ccc(CC(=O)Nc2ccc3ncccc3c2)cc1` [Example 295, 2-(4-(2-(2-aminopyridin-3-yl)-6-methyl-3H-imidazo[4,5-b]pyridin-3-yl)phenyl)-N-(quinolin-6-yl)acetamide], the IC50 in assay [2] (setting [7]) was determined as 0.076 µM; in assay [3], 3800 nM; in assay [4], 3300 nM; in assay [5], 5000 nM; in assay [6] it was 1800 nM.
On the same counts, the results for `CC(=O)Nc1cccc(-c2ccc3nc(-c4cccnc4N)n(-c4ccc(CC(=O)NC(C)C)cc4)c3n2)c1` [Example 296, 2-(4-(5-(3-acetamidophenyl)-2-(2-aminopyridin-3-yl)-3H-imidazo[4,5-b]pyridin-3-yl)phenyl)-N-isopropylacetamide] are 0.095 µM, 33000 nM, 12000 nM, 6900 nM and 3900 nM.
`CCCCNC(=O)Cc1ccc(-n2c(-c3cccnc3N)nc3ccc(-c4cccc(NC(C)=O)c4)nc32)cc1` [Example 297, 2-(4-(5-(3-acetamidophenyl)-2-(2-aminopyridin-3-yl)-3H-imidazo[4,5-b]pyridin-3-yl)phenyl)-N-butylacetamide]: the IC50 in assay [2] (setting [7]) came to 0.035 µM; in assay [3] it was 15000 nM; in assay [4], 6500 nM; in assay [5], 3600 nM; in assay [6], 3000 nM.
On the same counts, the results for `Nc1ncccc1-c1nc2ccc(-c3cccnc3)nc2n1-c1ccc(CNC(=O)c2cccc(F)c2)cc1` [Example 333, N-(4-(2-(2-aminopyridin-3-yl)-5-(pyridin-3-yl)-3H-imidazo[4,5-b]pyridin-3-yl)benzyl)-3-fluorobenzamide] are 0.1 µM, 13000 nM, 12000 nM, 6100 nM and 5700 nM.
Consider `CN(C)C1CCN(c2cccc(-c3ccc4nc(-c5cccnc5N)n(-c5ccc(C6(N)CCC6)cc5)c4n3)c2)CC1` [Example 460, 3-(3-[4-(1-aminocyclobutyl)phenyl]-5-{3-[4-(dimethylamino)piperidin-1-yl]phenyl}-3H-imidazo[4,5-b]pyridin-2-yl)pyridin-2-amine], for which, in assay [2] (setting [8]), the half-maximal inhibitory concentration (IC50) stood at 0.011 µM.
`Nc1ncccc1-c1nc2ccc(-c3cccc(N4CCC(O)CC4)c3)nc2n1-c1ccc(C2(N)CCC2)cc1` [Example 462, 1-(3-{3-[4-(1-aminocyclobutyl)phenyl]-2-(2-aminopyridin-3-yl)-3H-imidazo[4,5-b]pyridin-5-yl}phenyl)piperidin-4-ol]: the IC50 in assay [2] (setting [8]) was 0.01 µM.
Still for that read-out and setting: under `Nc1ncccc1-c1nc2ccc(-c3cccc(N4CCC5(CC4)OCCO5)c3)nc2n1-c1ccc(C2(N)CCC2)cc1` [Example 464, 3-{3-[4-(1-aminocyclobutyl)phenyl]-5-[3-(1,4-dioxa-8-azaspiro[4.5]dec-8-yl)phenyl]-3H-imidazo[4,5-b]pyridin-2-yl}pyridin-2-amine] stands 0.011 µM; under `Nc1ncccc1-c1nc2ccc(-c3ccc(N4CCOCC4)cc3)nc2n1-c1ccc(C2(N)CCC2)cc1` [Example 465, 3-{3-[4-(1-aminocyclobutyl)phenyl]-5-(4-morpholin-4-ylphenyl)-3H-imidazo[4,5-b]pyridin-2-yl}pyridin-2-amine hydrochloride], 0.0058 µM.
The same measure, in the same setting: in the case of `Nc1ncccc1-c1nc2ccc(-c3cccc(N4CCOCC4=O)c3)nc2n1-c1ccc(C2(N)CCC2)cc1` [Example 466, 4-(3-{3-[4-(1-aminocyclobutyl)phenyl]-2-(2-aminopyridin-3-yl)-3H-imidazo[4,5-b]pyridin-5-yl}phenyl)morpholin-3-one hydrochloride] it was 0.0035 µM.
